# Experiments:
# HIF1α [1] = test: Heat shock-induced HIF1α level in HCT116 (Western blot); type: cell-based; settings: HCT116, normoxia
# Text: (§1) HCT116, SW480, HT29, DLD1, and RKO cells were obtained from American Type Culture Collection. HCT116 and HT29 cells were maintained in McCoy's 5A medium (Hyclone) with 10% fetal bovine serum (FBS, Hyclone) and 1% penicillin/streptomycin (P/S). SW480, DLD1, and RCC4 cells were maintained in Dulbecco's modified Eagle medium (Hyclone) with 10% FBS and 1% P/S. RKO cells were maintained in RPMI 1640 medium (Hyclone) with 10% FBS and 1% P/S. Cells were regularly tested and authenticated. All cell lines were maintained at 37° C. in 5% CO2. As for hypoxia treatment, cells were kept in a hypoxia chamber (In vivo^2, Ruskinn) which maintains 0.5% O2.
# (§2) Treated cells were lysed in RIPA buffer (Sigma). Protein concentrations were determined using a BCA Protein Assay Kit (Life Technologies). Equal amounts of total protein were boiled with LDS sample buffer (Thermo Fisher Scientific) and reducing agent (Invitrogen). Samples were analyzed with SDS-PAGE. Proteins were transferred to an Immobilon-P PVDF membrane (EMD Millipore). First and secondary antibodies were added in order. Signals were detected after addition of the ECL western blotting substrate (Thermo Fisher Scientific).
# HIF1α [2] = test: HIF1α level in RCC4 cells (Western blot); type: cell-based; settings: 6 hours under normoxia, independently of VHL presence
# Text: as §1, §2
smiles,measurement,setting,value
O=C1NC(=NCc2cccs2)S/C1=C\c1ccc2ncccc2c1 [Ro-3306],reversal of heat shock upregulation of HIF1α,HIF1α [1],reversed
same,level of HIF1α,HIF1α [2],decreases

# — patent US10729692B2, “Dual inhibition of CDK and HSP90 destabilize HIF1alpha and synergistically induces cancer cell death” (Institute For Cancer Research, priority 2017, dated 2020)
